Source: patent US9260391B2, “Hypoglycemic dihydropyridones” (The Trustees of Columbia University in the City of New York, priority 2008, dated 2016)
Entries after “also recorded” stand apart in the source; their conditions may differ.

Tests used:
[1] = biological target: T1, VMAT2 in beta cells (Rattus norvegicus, UniProt Q01827); experiment: PET study: displacement of [11C]DTBZ in the pancreas by cold analog; type: in vivo; conditions: cold compound 2 mg/kg injected 30 min after radioligand; relative to DTBZ
T1 construct: from tissue; host or cells: pancreas (beta cells) of living Lewis rats
Experimental: PET scans were performed on anesthetized 12-14 week old Lewis male rats injected with radioligand [^11C]DTBZ (0 min, 0.5-1.0 μCi/gm body weight, specific activity >[…]) and cold compound 8 (HG-3) (30 mins, 2 mg/kg). The fraction of radioligand in the pancreas relative to the total amount injected was calculated and plotted versus time after injection. Error bars indicate SEM (n=3).
To test binding to VMAT2 in beta cells, PET scans were performed on 12-14 week old Lewis Male rats. Prior to imaging, the animals were anesthetized by isoflurane inhalation. After a transmission scan of the area of interest had been acquired (used to perform attenuation correction of the emission data), the radioligand [11C]DTBZ was administered (0.5-1.0 μCi/gm) in saline as bolus injection via the penile vein. PET scans of the animals were acquired dynamically to 90 min post injection on a Concorde microPET-R4 (CTI Molecular Imaging, Knoxville, Tenn., USA). The scanner provided a 100×80 mm field of view with a reconstructed resolution of 2.25 mm in the central 40 mm of the field of view. At thirty minutes post injection of [11C]DTBZ, the animals received a second injection via the penile vein of cold analog. […]

[2] = tested on: human islets; experiment: Glucose-stimulated insulin secretion of purified human cadaveric islets ex vivo; type: cell-based; conditions: high glucose media; ELISA
Experimental: The islet tissue used in these studies was obtained with institutional review board approval. Pancreas digestion and islet isolation were performed using minor modifications of the Edmonton purification protocol. (Shapiro, […] al. “Islet […] in seven patients with type I diabetes mellitus using a glucocortoid-free immunosuppressive regimen.” New England Journal of Medicine 343(4):230-8, (2000)) The determination of islet cell mass, viability, and purity were also performed. Purified islets were cultured in CMRL 1066 culture media with 10% fetal bovine serum at 37° C. in humidified air (5% CO2) for 18 to 24 hours. The human islet insulin secretory response was performed according to a procedure described by the Edmonton group. (Id.) Briefly, after an overnight culture, islets were incubated with either low or high concentrations of glucose for 2 hours at 37° C. and 5% CO2. The supernatant was collected for insulin measurement. Insulin concentrations in these experiments were analyzed with a human insulin enzyme-linked immunosorbent assay (ELISA) kit (ALPCO Insulin ELISA kit, Windham, N.H.). In some experiments TBZ, DTBZ or epinephrine was added to the cultures before glucose stimulation.

[3] = tested on: dopamine content of brain and pancreas tissue; experiment: Dopamine measurements in brain and pancreas extracts (ELISA); type: in vivo, rat
Experimental: Anaesthetized rats received an intravenous injection of TBZ and were sacrificed one hour later. Euthanasia was performed by exsanguination of the anesthetized animal. Brain and pancreas were harvested as quickly as possible and frozen at −80° C. until use. Frozen tissue was pulverized in a liquid nitrogen cooled mortar and extracted in 0.01 N HCl. The tissue extract was centrifuged at 10,000×g at 4° C. to remove debris and the total protein was estimated by reading the absorbance at 280 nm. The concentration of dopamine in the extract was estimated using an ELISA kit from Rocky Mountain Diagnostics (Colorado Springs, Colo.) per the manufacturer's instructions and normalized to the extract protein concentration.

[4] = tested on: Lewis rats; experiment: Plasma insulin and glucagon during IPGTT (ELISA); type: in vivo, rat
Experimental: (§1) Blood samples were collected from a superficial blood vessel in the tails of the rats following 6 hours of fasting between 12:00 noon and 2:00 p.m. The fasting blood glucose (BG) levels of the rats were measured using an Accu-Check blood glucose monitoring system (Roche Diagnostics, Sommerville, N.J.). Intraperitoneal glucose tolerance tests (IPGTT) were performed in 6 hour fasting un-anaesthetized animals. Briefly, after baseline BG measurements, animals received an intraperitoneal (i.p.) injection of 1 gram glucose/kilogram body weight. To minimize stress during the procedure, rats were handled by the same operator during acclimatization and later during weighing and IPGTT. Blood samples (approximately 30 μl) were collected at baseline and then again 15, 30, 60, 90, and 120 minutes following i.p. glucose administration. BG concentrations were measured immediately on these samples and the remainder processed.
(§2) Plasma was immediately separated by centrifugation at 3000×g for 15 minutes and then stored at −20° C. until analysis. Insulin and glucagon concentration measurements in rat plasma were performed by ELISA as per the manufacturer's instructions using kits from Linco Research Inc. (St. Charles, Mo.) and Alpco Diagnostics (Salem, N.H.), respectively. To validate the test, saline injections were performed by the same method. […] The area under the IPGTT glucose concentration×time curve (AUCIPGTT) was calculated by the trapezoidal rule. The area under the insulin or glucagon concentration×time curve (AUC INS or AUC GCG) was calculated in a similar manner.

[5] = tested on: Lewis rats; experiment: Intraperitoneal glucose tolerance test (IPGTT), compounds given i.v.; type: in vivo, rat
Experimental: (§3) All animal studies were reviewed and approved by the Institutional Animal Care and Use Committee (IACUC) at Columbia University's Medical School. All experiments were performed in accordance with the IACUC approved procedures. Normal male Lewis rats (100-400 grams) were obtained from Taconic (Taconic Inc., Germantown, N.Y.) and were housed under conditions of controlled humidity (55±5%), temperature (23±1° C.), and lighting (light on: 06.00-18.00 hours) with free access to standard laboratory rat chow and water. Rats were handled daily to minimize nonspecific stress for more than 7 days before the experiments began. In most experiments, it was necessary to measure blood glucose in fasting animals. For these groups, food was removed at the beginning of the light cycle, 6 hours before glucose levels were measured. Diabetes mellitus was induced by intraperitoneal injection of streptozotocin (Sigma Chemical Co., St. Louis, Mo.) (25 to 50 mg/kg) to animals (100 to 150 grams) that had been fasted 4 hours to enhance the effectiveness of STZ treatment.
The STZ solution was prepared fresh by dissolving it in 0.1 M citrate buffer (pH 5.5) and terminally sterile filtered. Control Lewis age and weight matched rats received a 0.5 ml/kg citrate vehicle alone via intraperitoneal injection. Sixty minutes prior to intraperitoneal glucose tolerance testing (IPGTT), anesthesia of male Lewis rats was induced with isoflurane (3-4% in oxygen) and maintained with 1-2% isoflurane in oxygen. Anaesthetized rats were administered TBZ and other indicated compounds at the indicated dose by intravenous (i.v.) injection using the penile vein. TBZ was dissolved in neat sterile dimethylsulfoxide (DMSO) and diluted (always more than 10 fold) in sterile saline. Rats received injections of vehicle alone (10% DMSO in saline) or reserpine (in saline). Animals recovered fully before receiving IPGTT.
as §1, §2
Anaesthetized rats were administered TBZ, THB, butamol, reserpine, emetine, or HG-6 at a dose of approximately 2-3 mg/kg body weight by intravenous (i.v.) injection using the penile vein. TBZ, THB, butamol, reserpine, emetine, and HG-6 were each separately dissolved in neat sterile dimethylsulfoxide (DMSO) and diluted (always more than 10 fold) in sterile saline. Rats received injections of vehicle alone (10% DMSO in saline) or reserpine (in saline). Animals recovered fully before receiving IPGTT. […]

[6] = tested on: Lewis rats; experiment: IPGTT of analogs HG-1 to HG-11, compounds given orally (FIG. 15); type: in vivo, rat; conditions: 2 mg/kg orally; for decrease of the AUC IPGTT (area under the blood glucose concentration-time curve): 30 min before i.p. glucose, relative to vehicle, n=5
Experimental: FIG. 15 is a bar graph showing the results of testing various analogs HG-1 to HG-11 in IPGTT glucose tolerance tests in rats. Results for TBZ, emetine, and olanzapine are also shown. Lewis rats fasted for 6 hours were administered the compounds orally (30 min, 2 mg/kg) followed by intraperitoneal glucose injection (0 min, […]), and plasma glucose levels were monitored for 120 mins. Results are presented as AUC percentage of the vehicle. Error bars indicate SEM (n=5).
Racemic HG-2 and its diastereoisomer HG-1 were evaluated for their ability to improve glucose tolerance by performing intraperitoneal glucose tolerance tests (IPGTT) in rats. IPGTT testing is described above. See also Murthy, R., et al., Eur. J. Nucl. Med. Mol. Imaging, 2008, 35(4), 790-797.

[7] = tested on: diabetic Lewis rats; experiment: IPGTT in streptozotocin-induced diabetic Lewis rats; type: in vivo, rat
Experimental: as §3, with “In most experiments, it was necessary to measure blood glucose in fasting animals.” left out, “Diabetes mellitus was induced by intraperitoneal injection of streptozotocin (Sigma Chemical Co., St. Louis, Mo.) (25 to 50 mg/kg) to animals (100 to 150 grams) that had been fasted 4 hours to enhance the effectiveness of STZ treatment.” left out
Blood samples were collected from a superficial blood vessel in the tails of the rats following 6 hours of fasting between 12:00 noon and 2:00 p.m. The fasting blood glucose (BG) levels of the rats were measured using an Accu-Check blood glucose monitoring system (Roche Diagnostics, Sommerville, N.J.). […] BG concentrations were measured immediately on these samples and the remainder processed.
Plasma was immediately separated by centrifugation at 3000×g for 15 minutes and then stored at −20° C. until analysis. […] The area under the IPGTT glucose concentration×time curve (AUCIPGTT) was calculated by the trapezoidal rule. […]

[8] = biological target: T2, dipeptidyl peptidase IV (DDP-IV) (Homo sapiens, UniProt P27487); experiment: Effect on dipeptidyl peptidase IV in vitro (BPS Bioscience assays); type: biochemical; conditions: concentrations up to 10 μM; data not shown
T2 construct: purchased BPS Bioscience, Inc. (San Diego, Calif.)
Experimental: The effect of HG-3 on DDP-IV was determined by assays provided by BPS Bioscience, Inc. (San Diego, Calif.).

T1 sequence (Q01827 whole entry): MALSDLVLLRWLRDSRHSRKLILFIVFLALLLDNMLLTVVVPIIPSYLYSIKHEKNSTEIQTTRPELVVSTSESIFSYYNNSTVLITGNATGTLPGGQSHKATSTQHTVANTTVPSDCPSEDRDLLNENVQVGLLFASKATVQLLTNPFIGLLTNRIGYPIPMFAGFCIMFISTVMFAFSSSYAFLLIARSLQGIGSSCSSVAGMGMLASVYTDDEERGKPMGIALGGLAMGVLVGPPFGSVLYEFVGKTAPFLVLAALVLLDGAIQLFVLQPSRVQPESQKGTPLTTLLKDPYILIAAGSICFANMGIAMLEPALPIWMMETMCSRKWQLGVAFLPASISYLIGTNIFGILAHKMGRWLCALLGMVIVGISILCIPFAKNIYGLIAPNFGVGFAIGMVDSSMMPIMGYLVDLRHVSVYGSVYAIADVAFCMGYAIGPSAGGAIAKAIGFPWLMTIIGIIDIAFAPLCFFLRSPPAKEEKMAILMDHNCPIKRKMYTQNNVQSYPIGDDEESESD
T2 sequence (P27487 whole entry): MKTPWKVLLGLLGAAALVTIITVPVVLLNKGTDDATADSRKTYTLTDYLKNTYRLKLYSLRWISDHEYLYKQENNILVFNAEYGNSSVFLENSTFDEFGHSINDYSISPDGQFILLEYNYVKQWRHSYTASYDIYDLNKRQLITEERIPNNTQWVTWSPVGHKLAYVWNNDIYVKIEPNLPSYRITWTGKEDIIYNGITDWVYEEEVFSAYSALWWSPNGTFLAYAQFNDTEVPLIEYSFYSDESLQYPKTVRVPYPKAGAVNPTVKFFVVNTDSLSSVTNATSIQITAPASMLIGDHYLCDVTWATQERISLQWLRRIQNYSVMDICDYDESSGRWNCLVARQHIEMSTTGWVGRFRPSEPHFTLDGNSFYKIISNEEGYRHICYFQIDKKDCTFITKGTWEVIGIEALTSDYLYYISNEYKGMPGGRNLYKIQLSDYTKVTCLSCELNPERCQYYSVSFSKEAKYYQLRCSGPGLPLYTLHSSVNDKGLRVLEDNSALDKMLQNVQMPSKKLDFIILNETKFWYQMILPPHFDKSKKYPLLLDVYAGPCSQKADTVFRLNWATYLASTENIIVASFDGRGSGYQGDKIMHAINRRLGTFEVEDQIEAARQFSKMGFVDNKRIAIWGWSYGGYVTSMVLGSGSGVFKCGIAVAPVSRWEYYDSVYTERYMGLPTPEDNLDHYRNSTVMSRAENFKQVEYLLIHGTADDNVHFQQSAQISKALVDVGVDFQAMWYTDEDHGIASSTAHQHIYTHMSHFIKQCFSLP

Compound: COc1ccc(C2CC(O)C(CC(C)C)C(=O)N2)cc1OC (stereo not drawn) [HG-4]
- displacement of [11C]DTBZ in the endocrine pancreas / binding to VMAT2 [1]: weak binding

Compound: CNC[C@H](O)c1ccc(O)c(O)c1 [epinephrine, L-epinephrine bitartrate]
- insulin secretion by human islets after stimulation by high concentrations of glucose [2]: inhibited secretion of insulin

Compound: COc1cc2c(cc1OC)[C@@H]1C[C@H](O)[C@@H](CC(C)C)CN1CC2 [DTBZ, dihydrotetrabenazine]
- insulin secretion by human islets after stimulation by high concentrations of glucose [2]: significantly enhanced the amount of insulin secreted; also recorded: enhances glucose-stimulated insulin secretion

Compound: COc1cc2c(cc1OC)[C@@H]1CC(=O)[C@@H](CC(C)C)CN1CC2 [TBZ, tetrabenazine]
- dopamine content of brain and pancreas tissue ([3]; TBZ 1.6 μg/gm body weight i.v., one hour later, normalized to total protein): reduces the dopamine content of brain and pancreas tissue
- dopamine content of pancreas and brain ([3]; one hour after injection of 10 μg/gm body weight of tetrabenazine): significantly depleted the dopamine content of pancreas and brain
- glucose-stimulated insulin and glucagon secretion in vivo ([4]; TBZ 1.6 μg/gm, Lewis rats 9-11 week old, during IPGTT): alters glucose-stimulated insulin and glucagon secretion in vivo
- plasma insulin levels relative to vehicle treated controls ([4]; following TBZ and glucose challenge): greater
- plasma glucagon levels relative to controls ([4]; following i.v. TBZ administration and glucose challenge): generally lower
- AUC INS with TBZ treatment relative to AUC INS of control animals ([4]; four out of five experiments): greater than two fold
- baseline plasma concentrations of glucagon ([4]; prior to glucose challenge): sometimes lower than controls, although these differences did not reach statistical significance
- AUC GCG, less than AUC GCG of control animals ([4]; three of five experiments): 75%-85%
- AUC Blood Glucose IPGTT ([5]; 2 mg/kg (2.0 μg/gbw) i.v.): smaller area under the curve; also recorded: lower than that for vehicle and butamol treated animals
- blood glucose excursion during IPGTT ([5]; 2 mg/kg body weight i.v., Lewis rats 9-11 weeks old, vs vehicle (DMSO)): reduced the blood glucose excursion
- blood glucose excursion during IPGTT ([5]; 2 mg/kg body weight i.v., Lewis rats 9-11 weeks old, vs vehicle (DMSO), listed as Tetrabenazine): reduced the blood glucose excursion
- blood glucose excursion during IPGTT ([5]; Lewis rats 9-11 week old, TBZ 1.6 μg/gm body weight i.v., vs vehicle): reduces the blood glucose excursion
- blood glucose excursion during IPGTT ([5]; Lewis rats 9-11 week old, TBZ 1.6 μg/gm body weight i.v., vs vehicle, listed as tetrabenazine): significant change in the size and shape of the glucose disposition curve
- reduction of the glucose excursion (areas under the curve during IPGTT) ([5]; TBZ 1.6 μg/gbw): 40-50%
- AUC IPGTT of controls compared with TBZ treated animals ([5]; TBZ 1.6 μg/gm, series of experiments n=4, p<0.05): significantly higher
- baseline fasting glucose concentration ([5]; after TBZ administration, before glucose challenge, data not shown): no reproducible differences were observed
- blood glucose levels around sixty minutes following glucose challenge ([5]; i.v. injection at 2 mg/kg body weight): returned to control or near normal levels
- blood glucose excursion during IPGTT ([5]; single dose 2-3 mg/kg body weight i.v., FIG. 12): consistently reduced the blood glucose excursion
- area under the curve from glucose tolerance tests ([5]; single dose 2-3 mg/kg body weight i.v., FIG. 12, each series a separate experiment): consistently suppressed the area under the curve; also recorded: depress the area under the curve
- dose dependence of AUC IPGTT ([5]; varying doses of TBZ, normalized to each animal's untreated baseline IPGTT): complex dose response effect; also recorded: reduces the blood glucose excursion in a dose dependent manner
- decrease of the AUC IPGTT (area under the blood glucose concentration-time curve) [6]: 26%
- blood glucose excursion / area under the curve in IPGTT, diabetic rats ([7]; STZ-diabetic Lewis rats 5-8 weeks, TBZ 1.6 μg/gm i.v.): smaller area under the curve; also recorded: reduces the blood glucose excursion during IPGTT in diabetic Lewis rats
- blood glucose levels before i.p. glucose challenge, diabetic rats ([7]; around sixty minutes following i.v. injection of TBZ): returned to control or near normal levels

Compound: COc1ccc(C2CC(OCC(C)C)=CC(=O)N2)cc1OC (stereo not drawn) [HG-3, 6-(3,4-dimethoxyphenyl)-4-isobutoxy-5,6-dihydropyridin-2(1H)-one]
- displacement of [11C]DTBZ in the endocrine pancreas / binding to VMAT2 [1]: did not significantly displace
- effect on DDP-IV in vitro [8]: negative
- decrease of the AUC IPGTT (area under the blood glucose concentration-time curve) [6]: 45%
- hypoglycemic activity in IPGTT compared with TBZ / HG-3 ([6]; FIG. 15): potent hypoglycemic effect; also recorded: significant decrease in blood glucose levels as compared to TBZ
